# Measured values taken from paper PMC7139731, “Synthesis, Anticancer Evaluation and Structure-Activity Analysis of Novel (E)- 5-(2-Arylvinyl)-1,3,4-oxadiazol-2-yl)benzenesulfonamides” (International Journal of Molecular Sciences, 2020).
# Tests used:
# [1] = test system: HCT-116 cells (colon cancer); assay: MTT cell viability assay, 72 h, HCT-116; format: cell-based, human; settings: MTT assay, 72 h incubation, mean ± SD
# Protocol: (§1) Compounds 7–36 and 47–54 were tested regarding their effect on growth of three human cancer cell lines: colon cancer HCT-116, breast cancer MCF-7 and cervical cancer HeLa, as well as on noncancerous keratinocyte cell line HaCaT. Cell viability was measured with MTT assay after 72 h of incubation with tested compound in five concentration 1–100 μM. The MTT test enables us to quantify the living cells by measuring the activity of mitochondrial enzymes, enables reducing tetrazolium dye MTT to purple formazan. In this manner, IC50—molar concentration [µM] that inhibits 50% net cell growth—was determined (Table 1 and Table 2).
# (§2) All chemicals, if not stated otherwise, were obtained from Sigma-Aldrich (St. Louis, MO, USA). The MCF-7, HeLa and HaCaT cell lines were purchased from Cell Lines Services (Eppelheim, Germany), the HCT-116 cell line were obtained from ATCC (ATCC-No: CCL-247). Cells were cultured in Dulbecco’s modified Eagle’s medium (DMEM) supplemented with 10% fetal bovine serum, 2 mM glutamine, 100 units/mL penicillin, and 100 μg/mL streptomycin. Cultures were maintained in a humidified atmosphere with 5% CO2 at 37 °C in an incubator (HeraCell, Heraeus, Langenselbold, Germany). Cell viability was determined using the MTT [3-(4,5-dimethylthiazol-2-yl)-2,5-diphenyl-tetrazolium bromide] assay. Stock solutions of the studied compounds were obtained in 100% DMSO. […] Cells were seeded in 96-well plates at a density of 5 × 10^3 cells/well and treated for 72 h with the examined compounds in the concentration range 1–100 μM (1, 10, 25, 50 and 100 μM). Following treatment, MTT (0.5 mg/mL) was added to the medium and cells were further incubated for 2 h at 37 °C. Cells were lysed with DMSO and the absorbance of the formazan solution was measured at 550 nm with a plate reader Victor 1420 multilabel counter, (PerkinElmer, Inc. Waltham, MA USA). […] The experiment was performed in triplicate. Values are expressed as the mean ± SD of at least three independent experiments
# [2] = test system: MCF-7 cells (breast cancer); assay: MTT cell viability assay, 72 h, MCF-7; format: cell-based, human; settings: MTT assay, 72 h incubation, mean ± SD
# Protocol: as §1, §2
# [3] = test system: HeLa cells (cervical cancer); assay: MTT cell viability assay, 72 h, HeLa; format: cell-based, human; settings: MTT assay, 72 h incubation, mean ± SD
# Protocol: as §1, §2
# [4] = test system: HaCaT noncancerous keratinocyte cell line; assay: MTT cell viability assay, 72 h, HaCaT; format: cell-based; settings: for IC50: Homo sapiens, HaCaT, MTT assay, 72 h incubation, mean ± SD; for activity against HaCaT compared with cancer lines: in words
# Protocol: as §1, §2
Structure (SMILES),"IC50 ([1]; Homo sapiens, HCT-116, 72 h) [µM]","IC50 ([2]; Homo sapiens, MCF7, 72 h) [µM]","IC50 ([3]; Homo sapiens, HeLa, 72 h) [µM]",IC50 [1] [µM],IC50 [2] [µM],IC50 [3] [µM],IC50 [4] [µM],activity against HaCaT compared with cancer lines [4]
NS(=O)(=O)c1cc(-c2nnc(/C=C/c3cccc(Cl)c3)o2)c(Cl)cc1SCc1ccccc1 [Compound 10],–,–,–,–,–,–,–,at the same level as against cancer lines
"NS(=O)(=O)c1cc(-c2nnc(/C=C/c3c(Cl)cccc3Cl)o2)c(Cl)cc1Cl [Compound 13, (E)-2,4-Dichloro-5-(5-(2,6-dichlorostyryl)-1,3,4-oxadiazol-2-yl)benzenesulfonamide]",16 ± 1,92 ± 5,25 ± 1,–,–,–,95 ± 2,–
"NS(=O)(=O)c1cc(-c2nnc(/C=C/c3ccc(C(F)(F)F)cc3)o2)c(Cl)cc1Cl [Compound 21, (E)-2,4-Dichloro-5-(5-(4-(trifluoromethyl)styryl)-1,3,4-oxadiazol-2-yl)benzenesulfonamide]",18 ± 1,75 ± 2,90 ± 2,–,–,–,95 ± 4,–
"NS(=O)(=O)c1cc(-c2nnc(/C=C/c3cccs3)o2)c(Cl)cc1Cl [Compound 29, (E)-2,4-Dichloro-5-(5-(2-(thiophen-2-yl)vinyl)-1,3,4-oxadiazol-2-yl)benzenesulfonamide]",108 ± 4,175 ± 12,245 ± 12,–,–,–,–,–
"NS(=O)(=O)c1ccc(-c2nnc(/C=C/c3ccccc3)o2)cc1 [Compound 47, (E)-4-(5-Styryl-1,3,4-oxadiazol-2-yl)benzenesulfonamide]",185 ± 11,168 ± 8,130 ± 7,–,–,–,–,–
"NS(=O)(=O)c1ccc(-c2nnc(/C=C/c3ccc(C(F)(F)F)cc3)o2)cc1 [Compound 50, (E)-4-(5-(4-(Trifluoromethyl)styryl)-1,3,4-oxadiazol-2-yl)benzenesulfonamide]",155 ± 7,280 ± 15,520 ± 25,–,–,–,–,–
"Clc1ccc(-c2nnc(/C=C/c3ccccc3)o2)c(Cl)c1 [Compound 51, (E)-2-(2,4-Dichlorophenyl)-5-styryl-1,3,4-oxadiazole]",92 ± 2,125 ± 6,190 ± 10,–,–,–,–,–
"Clc1ccc(/C=C/c2nnc(-c3ccc(Cl)cc3Cl)o2)cc1 [Compound 52, (E)-2-(4-Chlorostyryl)-5-(2,4-dichlorophenyl)-1,3,4-oxadiazole]",64 ± 3,110 ± 6,215 ± 6,–,–,–,–,–
"N#Cc1ccc(/C=C/c2nnc(-c3ccc(Cl)cc3Cl)o2)cc1 [Compound 53, (E)-4-(2-(5-(2,4-Dichlorophenyl)-1,3,4-oxadiazol-2-yl)vinyl)benzonitrile]",106 ± 3,142 ± 6,225 ± 11,–,–,–,–,–
"FC(F)(F)c1ccc(/C=C/c2nnc(-c3ccc(Cl)cc3Cl)o2)cc1 [Compound 54, (E)-2-(2,4-Dichlorophenyl)-5-(4-(trifluoromethyl)styryl)-1,3,4-oxadiazole]",98 ± 1,102 ± 5,104 ± 3,–,–,–,–,–

# Further lines, with some results ahead:
"IC50 ([1]; Homo sapiens, HCT-116, 72 h) [µM]","IC50 ([2]; Homo sapiens, MCF7, 72 h) [µM]","IC50 ([3]; Homo sapiens, HeLa, 72 h) [µM]",IC50 [1] [µM],IC50 [2] [µM],IC50 [3] [µM],Structure (SMILES),IC50 [4] [µM],activity against HaCaT compared with cancer lines [4]
86 ± 3,165 ± 5,455 ± 14,–,–,–,"NS(=O)(=O)c1cc(-c2nnc(/C=C/c3ccccc3)o2)c(Cl)cc1Cl [Compound 7, (E)-2,4-Dichloro-5-(5-styryl-1,3,4-oxadiazol-2-yl)benzenesulfonamide]",–,–
24 ± 1,150 ± 10,19 ± 1,–,–,–,"NS(=O)(=O)c1cc(-c2nnc(/C=C/c3cccc(Cl)c3)o2)c(Cl)cc1Cl [Compound 9, (E)-2,4-Dichloro-5-(5-(3-chlorostyryl)-1,3,4-oxadiazol-2-yl)benzenesulfonamide]",98 ± 2,–
22 ± 1,28 ± 1,42 ± 1,–,–,–,"NS(=O)(=O)c1cc(-c2nnc(/C=C/c3ccc(Cl)cc3)o2)c(Cl)cc1Cl [Compound 11, (E)-2,4-Dichloro-5-(5-(4-chlorostyryl)-1,3,4-oxadiazol-2-yl)benzenesulfonamide]",51 ± 3,–
34 ± 1,41 ± 1,34 ± 2,–,–,–,"NS(=O)(=O)c1cc(-c2nnc(/C=C/c3ccc(Br)cc3)o2)c(Cl)cc1Cl [Compound 15, (E)-5-(5-(4-Bromostyryl)-1,3,4-oxadiazol-2-yl)-2,4-dichlorobenzenesulfonamide]",55 ± 2,–
49 ± 1,73 ± 3,99 ± 1,–,–,–,"NS(=O)(=O)c1cc(-c2nnc(/C=C/c3ccc(O)cc3)o2)c(Cl)cc1Cl [Compound 17, (E)-2,4-Dichloro-5-(5-(4-hydroxystyryl)-1,3,4-oxadiazol-2-yl)benzenesulfonamide]",100 ± 5,–
18 ± 1,59 ± 3,18.2 ± 0.5,–,–,–,"NS(=O)(=O)c1cc(-c2nnc(/C=C/c3ccc(O)cc3)o2)c(Cl)cc1SCc1ccccc1 [Compound 18, (E)-2-(Benzylthio)-4-chloro-5-(5-(4-hydroxystyryl)-1,3,4-oxadiazol-2-yl)benzenesulfonamide]",25.6 ± 0.5,at the same level as against cancer lines
13.7 ± 0.5,10 ± 0.3,117 ± 6,–,–,–,"N#Cc1ccc(/C=C/c2nnc(-c3cc(S(N)(=O)=O)c(Cl)cc3Cl)o2)cc1 [Compound 19, (E)-2,4-Dichloro-5-(5-(4-cyanostyryl)-1,3,4-oxadiazol-2-yl)benzenesulfonamide]",102 ± 3,–
9 to 12,9 to 12,9 to 12,10.3 ± 0.2,8.9 ± 0.5,12.2 ± 0.5,"N#Cc1ccc(/C=C/c2nnc(-c3cc(S(N)(=O)=O)c(SCc4ccccc4)cc3Cl)o2)cc1 [Compound 20, (E)-2-(Benzylthio)-4-chloro-5-(5-(4-cyanostyryl)-1,3,4-oxadiazol-2-yl)benzenesulfonamide]",20 ± 1,–
15.2 ± 0.1,30 ± 1,33.4 ± 0.5,–,–,–,"NS(=O)(=O)c1cc(-c2nnc(/C=C/c3ccc(C(F)(F)F)cc3)o2)c(Cl)cc1SCc1ccccc1 [Compound 22, (E)-2-(Benzylthio)-4-chloro-5-(5-(4-(trifluoromethyl)styryl)-1,3,4-oxadiazol-2-yl)benzenesulfonamide]",33 ± 1,–
255 ± 13,640 ± 13,740 ± 37,–,–,–,"NS(=O)(=O)c1cc(-c2nnc(/C=C/c3ccncc3)o2)c(Cl)cc1Cl [Compound 23, (E)-2,4-Dichloro-5-(5-(2-(pyridin-4-yl)vinyl)-1,3,4-oxadiazol-2-yl)benzenesulfonamide]",–,–
31 ± 1,225 ± 11,135 ± 8,–,–,–,"NS(=O)(=O)c1cc(-c2nnc(/C=C/c3ccncc3)o2)c(Cl)cc1SCc1ccccc1 [Compound 24, (E)-2-(Benzylthio)-4-chloro-5-(5-(2-(pyridin-4-yl)vinyl)-1,3,4-oxadiazol-2-yl)benzenesulfonamide]",150 ± 8,–
220 ± 11,760 ± 24,570 ± 17,–,–,–,"NS(=O)(=O)c1cc(-c2nnc(/C=C/c3cccnc3)o2)c(Cl)cc1Cl [Compound 25, (E)-2,4-Dichloro-5-(5-(2-(pyridin-3-yl)vinyl)-1,3,4-oxadiazol-2-yl)benzenesulfonamide]",–,–
85 ± 5,350 ± 17,135 ± 4,–,–,–,"NS(=O)(=O)c1cc(-c2nnc(/C=C/c3cccnc3)o2)c(Cl)cc1SCc1ccccc1 [Compound 26, (E)-2-(Benzylthio)-4-chloro-5-(5-(2-(pyridin-3-yl)vinyl)-1,3,4-oxadiazol-2-yl)benzenesulfonamide]",–,–
117 ± 4,110 ± 2,170 ± 5,–,–,–,"NS(=O)(=O)c1cc(-c2nnc(/C=C/c3ccccn3)o2)c(Cl)cc1Cl [Compound 27, (E)-2,4-Dichloro-5-(5-(2-(pyridin-2-yl)vinyl)-1,3,4-oxadiazol-2-yl)benzenesulfonamide]",–,–
